Measurements reported in patent US12077503B2, “Substituted cyclic amides and their use as herbicides” (FMC CORPORATION, priority 2015, dated 2024).

Experiments:
Type in all cases: in vivo
[1] = tested on: giant foxtail (Setaria faberii); assay: Test A postemergence; conditions: Setaria faberi, post-emergence, 240 h
Method in brief: (§1)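 Ratings of 0 (no effect) to 100 (complete control) come from visual comparison with untreated controls roughly 10 d after treatment. Test chemicals, formulated in a non-phytotoxic solvent mixture with surfactant, were applied either as a preemergence directed soil spray on seeded soil or postemergence to one- to two-leaf plants 2 to 10 cm tall.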

corn (Zea mays) = assay: Test A postemergence; conditions: Zea mays, post-emergence, 240 h
Method in brief: as §1

[2] = tested on: ragweed (common ragweed, Ambrosia elatior); assay: Test A postemergence; conditions: Ambrosia artemisiifolia, post-emergence, 240 h
Method in brief: as §1

[3] = tested on: Galium (catchweed bedstraw, Galium aparine); assay: Test A postemergence; conditions: Galium, post-emergence, 240 h
Method in brief: as §1

[4] = tested on: barnyardgrass (Echinochloa crus-galli); assay: Test A postemergence; conditions: Echinochloa crus-galli, post-emergence, 240 h
Method in brief: as §1

[5] = tested on: pigweed (Amaranthus retroflexus); assay: Test A postemergence; conditions: Amaranthus retroflexus, post-emergence, 240 h
Method in brief: as §1

Kochia (Kochia scoparia) [6] = assay: Test A postemergence; conditions: Bassia scoparia, post-emergence, 240 h
Method in brief: as §1

[7] = tested on: blackgrass (Alopecurus myosuroides); assay: Test A postemergence; conditions: Alopecurus myosuroides, post-emergence, 240 h
Method in brief: as §1

[8] = tested on: ryegrass, Italian (Italian ryegrass, Lolium multiflorum); assay: Test A postemergence; conditions: Lolium multiflorum, post-emergence, 240 h
Method in brief: as §1

[9] = tested on: wheat (Triticum aestivum); assay: Test A postemergence; conditions: Triticum aestivum, post-emergence, 240 h
Method in brief: as §1

[10] = tested on: giant foxtail (Setaria faberii); assay: Test A preemergence; conditions: Setaria faberi, pre-emergence, 240 h, read-out: Plant response rating, Foxtail, Giant
Method in brief: as §1

[11] = tested on: ragweed (common ragweed, Ambrosia elatior); assay: Test A preemergence; conditions: Ambrosia artemisiifolia, pre-emergence, 240 h, read-out: Plant response rating, Ragweed
Method in brief: as §1

[12] = tested on: barnyardgrass (Echinochloa crus-galli); assay: Test A preemergence; conditions: Echinochloa crus-galli, pre-emergence, 240 h, read-out: Plant response rating, Barnyardgrass
Method in brief: as §1

[13] = tested on: pigweed (Amaranthus retroflexus); assay: Test A preemergence; conditions: Amaranthus retroflexus, pre-emergence, 240 h, read-out: Plant response rating, Pigweed
Kochia (Kochia scoparia) [14] = assay: Test A preemergence; conditions: Bassia scoparia, pre-emergence, 240 h, read-out: Plant response rating, Kochia
Method in brief: as §1

[15] = tested on: ryegrass, Italian (Italian ryegrass, Lolium multiflorum); assay: Test A preemergence; conditions: Lolium multiflorum, pre-emergence, 240 h, read-out: Plant response rating, Ryegrass, Italian
Method in brief: as §1

[16] = 125 g ai/ha, preemergence, visual rating after approx. 10 d, 0 to 100 scale where 0 is no effect and 100 is complete control
[17] = Preemergence, 31 g ai/ha, 0 to 100 scale (0 no effect, 100 complete control)

CSc1ccccc1NC(=O)[C@H]1C(=O)N(C)CC[C@@H]1c1ccc2c(c1)OC(F)(F)O2 [Compound 814]
0%: pest or weed control at 125 g/ha ([1]; 125 g ai/ha, postemergence, visual injury rating after approximately 10 d, read-out: Foxtail, Giant plant response rating (0 to 100 scale, 0 no effect, 100 complete control)) | pest or weed control at 31 g/ha ([1]; Postemergence, 31 g ai/ha, visual injury after approx. 10 d, 0 to 100 scale, 0 no effect, 100 complete control, read-out: Plant response rating, Foxtail, Giant) | plant injury at 125 g/ha (corn (Zea mays); 125 g ai/ha, postemergence, visual injury rating after approximately 10 d, read-out: Corn plant response rating (0 to 100 scale, 0 no effect, 100 complete control)) | Corn plant response rating (crop injury, 0 = no effect, 100 = complete kill) at 31 g/ha (corn (Zea mays); Postemergence, 31 g ai/ha, visual injury after approx. 10 d, 0 to 100 scale, 0 no effect, 100 complete control) | pest or weed control at 125 g/ha ([2]; 125 g ai/ha, postemergence, visual injury rating after approximately 10 d, read-out: Ragweed plant response rating (0 to 100 scale, 0 no effect, 100 complete control)) | pest or weed control at 31 g/ha ([2]; Postemergence, 31 g ai/ha, visual injury after approx. 10 d, 0 to 100 scale, 0 no effect, 100 complete control, read-out: Plant response rating, Ragweed) | pest or weed control at 125 g/ha ([3]; 125 g ai/ha, postemergence, visual injury rating after approximately 10 d, read-out: Galium plant response rating (0 to 100 scale, 0 no effect, 100 complete control)) | pest or weed control at 31 g/ha ([3]; Postemergence, 31 g ai/ha, visual injury after approx. 10 d, 0 to 100 scale, 0 no effect, 100 complete control, read-out: Plant response rating, Galium) | pest or weed control at 125 g/ha ([4]; 125 g ai/ha, postemergence, visual injury rating after approximately 10 d, read-out: Barnyardgrass plant response rating (0 to 100 scale, 0 no effect, 100 complete control)) | pest or weed control at 31 g/ha ([4]; Postemergence, 31 g ai/ha, visual injury after approx. 10 d, 0 to 100 scale, 0 no effect, 100 complete control, read-out: Plant response rating, Barnyardgrass) | pest or weed control at 125 g/ha ([5]; 125 g ai/ha, postemergence, visual injury rating after approximately 10 d, read-out: Pigweed plant response rating (0 to 100 scale, 0 no effect, 100 complete control)) | pest or weed control at 31 g/ha ([5]; Postemergence, 31 g ai/ha, visual injury after approx. 10 d, 0 to 100 scale, 0 no effect, 100 complete control, read-out: Plant response rating, Pigweed) | pest or weed control at 125 g/ha (Kochia (Kochia scoparia) [6]; 125 g ai/ha, postemergence, visual injury rating after approximately 10 d, read-out: Kochia plant response rating (0 to 100 scale, 0 no effect, 100 complete control)) | pest or weed control at 31 g/ha (Kochia (Kochia scoparia) [6]; Postemergence, 31 g ai/ha, visual injury after approx. 10 d, 0 to 100 scale, 0 no effect, 100 complete control, read-out: Plant response rating, Kochia) | pest or weed control at 125 g/ha ([7]; 125 g ai/ha, postemergence, visual injury rating after approximately 10 d, read-out: Blackgrass plant response rating (0 to 100 scale, 0 no effect, 100 complete control)) | pest or weed control at 31 g/ha ([7]; Postemergence, 31 g ai/ha, visual injury after approx. 10 d, 0 to 100 scale, 0 no effect, 100 complete control, read-out: Plant response rating, Blackgrass) | pest or weed control at 125 g/ha ([8]; 125 g ai/ha, postemergence, visual injury rating after approximately 10 d, read-out: Ryegrass, Italian plant response rating (0 to 100 scale, 0 no effect, 100 complete control)) | pest or weed control at 31 g/ha ([8]; Postemergence, 31 g ai/ha, visual injury after approx. 10 d, 0 to 100 scale, 0 no effect, 100 complete control, read-out: Plant response rating, Ryegrass, Italian) | plant injury at 125 g/ha ([9]; 125 g ai/ha, postemergence, visual injury rating after approximately 10 d, read-out: Wheat plant response rating (0 to 100 scale, 0 no effect, 100 complete control)) | plant injury at 31 g/ha ([9]; Postemergence, 31 g ai/ha, visual injury after approx. 10 d, 0 to 100 scale, 0 no effect, 100 complete control, read-out: Plant response rating, Wheat) | pest or weed control at 125 g/ha [10, 16] | pest or weed control at 31 g/ha [10, 17] | pest or weed control at 125 g/ha [11, 16] | pest or weed control at 31 g/ha [11, 17] | pest or weed control at 125 g/ha [12, 16] | pest or weed control at 31 g/ha [12, 17] | pest or weed control at 125 g/ha [13, 16] | pest or weed control at 31 g/ha [13, 17] | pest or weed control at 125 g/ha (Kochia (Kochia scoparia) [14]; [16]) | pest or weed control at 31 g/ha (Kochia (Kochia scoparia) [14]; [17]) | pest or weed control at 125 g/ha [15, 16] | pest or weed control at 31 g/ha [15, 17]
